The results in this text go back to article PMC6449294, “SNAPshots of the MCHR1: a Comparison Between the PET-Tracers [^18F]FE@SNAP and [^11C]SNAP-7941” (Molecular Imaging and Biology, 2018).

In series [1] the target is T1, human serum albumin (HSA) (Homo sapiens, UniProt P02768).
T1 construct: purchased Daicel Chemical Industries CHIRALPAK HSA, column-batch H13L-2405
Nature of the series: Plasma protein binding using bioaffinity chromatography (CHIRALPAK HSA). It counts as in vitro ADME. The settings on record: human; bioaffinity chromatography on HSA stationary phase; read-out: Plasma protein binding (%PPB) / Binding to human serum albumin (converted). As to the method: The binding of (±)-SNAP-7941 and FE@SNAP to human serum albumin (HSA) was examined by bioaffinity chromatography according to a previously published manuscript. In short, the analytes were diluted in 2-propanol and ammonium acetate buffer (0.5 mg/ml) and injected on the CHIRALPAK®HSA stationary phase (50 × 3 mm, 5 μm pore size, column-batch: H13L-2405, Daicel Chemical Industries, West Chester, PA, USA). Prior the experiments, the column was calibrated with reference standards, and the resulting regression equation was used to convert the logarithmic capacity factors (log(k′)) to the percent of plasma protein binding (%PPB). The calibration curves, as well as the experiments, were performed by triplicate injections and at least three times.

The nature of series [2]: Ex vivo metabolites in rat whole blood (radio-HPLC). The settings on record: for Metabolism in rat blood: ex vivo, result in words. As to the method:
For the analysis of potential radiometabolites, blood samples (50–80 μl) from rats were withdrawn at 10 and 45 min for [^11C]SNAP-7941 and at 10, 30, and 60 min for [^18F]FE@SNAP and immediately subjected to the equivalent amount of acetonitrile, homogenized, and stored on ice before processing. Additionally, [^18F]FE@SNAP was administered to three rats, which were sacrificed after 45 min. Whole brains were harvested and homogenized with equivalent amounts (500–800 μl) of acetonitrile and 0.9 % saline solution using an ULTRA-TURRAX® (T25 basic, IKA Laboratory Equipment, Staufen, Germany). Subsequently, blood and brain were centrifuged (23,000 ×g, 4 min, 4 °C; Hettich Universal 30RF, Tuttlingen, Germany), and the obtained supernatant was analyzed by an analytical HPLC equipped with a radioactivity detector (radio-HPLC) (stationary phase: Chromolith® Performance RP-18e, 100–4.6 mm; precolumn: Chromolith® Guard Cartridge RP-18e, 5–4.6 mm; Merck, Darmstadt, Germany), mobile phase: (water/acetic acid 97.5/2.5 v/v; 2.5 g/l ammonium acetate; pH 3.5)/acetonitrile 70/30 v/v; flow: 1 ml/min, λ = 254 nm). The ratio between metabolite and intact radiotracer was calculated using quantitative HPLC analysis.

The target in series [3] is T2, MCHR1 (Rattus norvegicus, UniProt P97639).
T2 construct: from tissue; host or cells: living Sprague-Dawley rats (PET) and their organs after sacrifice
T2 sequence (P97639 whole entry): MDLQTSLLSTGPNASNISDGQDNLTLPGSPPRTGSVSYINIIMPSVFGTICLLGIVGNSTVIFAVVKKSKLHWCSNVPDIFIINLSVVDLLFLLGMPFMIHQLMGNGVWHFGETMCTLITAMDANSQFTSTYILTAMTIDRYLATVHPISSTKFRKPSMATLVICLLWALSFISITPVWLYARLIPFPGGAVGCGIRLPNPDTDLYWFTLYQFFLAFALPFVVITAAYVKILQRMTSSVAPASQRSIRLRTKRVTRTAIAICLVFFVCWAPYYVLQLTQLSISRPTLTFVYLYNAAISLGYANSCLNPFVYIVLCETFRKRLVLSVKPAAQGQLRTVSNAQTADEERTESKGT
Nature of the series: Ex vivo biodistribution, vehicle vs displacement with (±)-SNAP-7941. It counts as in vivo. Particulars: 15 mg/kg (±)-SNAP-7941. The source says:
After the imaging studies, the animals were sacrificed by decapitation; blood and tissues were removed and collected in tubes, weighed, and subjected to radioactivity measurements in a Gamma Counter (2480 WIZARD^2, PerkinElmer, Waltham, MA, USA). Values were normalized to the applied dose, the organ, and body weight and expressed as the standardized uptake value (SUV [g/ml]).

Setting [4] is: 10 min after radiotracer application.

Entries after “also recorded” stand apart in the source; their conditions may differ.

T1 sequence (P02768 25-609): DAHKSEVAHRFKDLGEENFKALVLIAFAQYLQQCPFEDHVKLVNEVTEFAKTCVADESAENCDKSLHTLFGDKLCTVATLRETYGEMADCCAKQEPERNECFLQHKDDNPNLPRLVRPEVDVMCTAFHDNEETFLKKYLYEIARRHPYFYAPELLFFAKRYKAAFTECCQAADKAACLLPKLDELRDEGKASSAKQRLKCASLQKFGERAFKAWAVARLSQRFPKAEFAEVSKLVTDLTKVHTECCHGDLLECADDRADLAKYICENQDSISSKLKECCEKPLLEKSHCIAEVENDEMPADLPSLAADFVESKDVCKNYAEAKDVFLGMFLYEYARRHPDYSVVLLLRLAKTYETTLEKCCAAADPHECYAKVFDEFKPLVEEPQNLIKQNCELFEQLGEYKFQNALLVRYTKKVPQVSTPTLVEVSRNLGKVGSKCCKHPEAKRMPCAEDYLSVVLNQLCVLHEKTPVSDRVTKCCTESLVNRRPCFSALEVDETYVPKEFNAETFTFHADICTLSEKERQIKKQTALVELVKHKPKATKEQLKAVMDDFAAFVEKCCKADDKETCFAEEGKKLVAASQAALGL

Regarding `COCC1=C(C(=O)O[11CH3])C(c2ccc(F)c(F)c2)N(C(=O)NCCCN2CCC(c3cccc(NC(C)=O)c3)CC2)C(=O)N1` (centres unmarked) [[^11C]SNAP-7941], the fraction unbound at 0.5 mg/ml in series [1] is 0.2. Besides, the “intact tracer in rat whole blood” value in series [2] (setting [4]) came out at 93.52 ± 0.1%. Also, the “intact tracer in rat whole blood” value in series [2] (45 min) is 93.74 ± 6.2%. In addition, the “Metabolism in rat blood” value in series [2] was “high metabolic stability; also recorded: Stable”. For the same molecule, in series [3], the “difference in colon uptake between vehicle and displacement groups” value is given as “Statistically significant differences”; the “difference in eye uptake between vehicle and displacement groups” value is recorded as “Statistically significant differences”; the “difference in pancreas uptake between vehicle and displacement groups” value was “Statistically significant differences”; the “overall biodistribution: uptake in target regions after displacement” value was “decreased uptake”.

For `COCC1=C(C(=O)OCC[18F])C(c2ccc(F)c(F)c2)N(C(=O)NCCCN2CCC(c3cccc(NC(C)=O)c3)CC2)C(=O)N1` (centres unmarked) [[^18F]FE@SNAP], the fraction unbound at 0.5 mg/ml in series [1] was 0.23. Moreover, in series [2] (setting [4]), the “intact tracer in rat whole blood” value was 38.40 ± 2.3%. In series [2] (30 min after administration), the “intact tracer in rat whole blood” value came to 31.59 ± 4.0%. The “intact tracer in rat whole blood” value in series [2] (60 min) came out at 14.42 ± 3.3%. For the same molecule, the “Metabolism in rat blood” value in series [2] was “Rapidly metabolized”. In series [3], the “difference in colon uptake between vehicle and displacement groups” value is “no statistically significant difference”; the “difference in eye uptake between vehicle and displacement groups” value is recorded as “significant differences”; the “difference in pancreas uptake between vehicle and displacement groups” value is listed as “significant differences”; the “overall biodistribution: uptake in target regions after displacement” value is on record as “decreased uptake”.
